According to patent publication US10517842B2, “Methods of modulating miRNA levels and compositions for use in the same” (Los Angeles Biomedical Research Institute at Harbor-UCLA …, priority 2017, dated 2019):

Key:
caspase 3/7 = assay: Caspase-3/7 activity assay (Apo-One) in LSMC; type: cell-based, human; details: Tranilast 200 μM, 48 hrs
Procedure: LSMC were cultured in 96-well plates as mentioned above and at sub-confluence were treated with 200 μM Tranilast for 48 hrs. The caspase 3/7 activity was determined using the Apo-One homogeneous caspase-3/7 assay (Promega, Madison, Wis.) after the indicated time periods according to the manufacturer's protocol. The Apo-One caspase-3/7 reagent was added in a 1:1 ratio with the medium, and the rate of caspase-3/7 activity was determined by measuring the fluorescence using a multi-plate reader (Molecular Devices, Inc., Sunnyvale, Calif.) at an excitation of 485 nm and an emission of 527 nm.

CCND1 = assay: Quantitative RT-PCR, mRNA expression in LSMC; type: cell-based, human; details: Tranilast 200 μM vs DMSO, 12 h to 48 h, P<0.05
Procedure: (§1) Total RNA was extracted from LSMC using RNAzol (GeneCopoeia, Rockville, Md.) and their quantity and quality was determined (ND-1000 Spectrophotometer, NanoDrop Technologies, Wilmington, Del.) as previously described (Chuang & Khorram, “miR-200c Regulates IL8 Expression by Targeting IKBKB: A Potential Mediator of Inflammation in Leiomyoma Pathogenesis,” PloS one (2014) 9:e95370). For medium miRNA extraction, 5 pg of synthetic miR-1 from Caenorhabditis elegans (cel-miR-1) was added as a spike-in control for purification efficiency. Subsequently, 2 μg or 10 ng (for miRNA) was reverse transcribed using random primers for CCND1, CDK2, COL1A1, COL3A1, TGF-β3, DNMT1 and EZH2 or specific primers for miR-29c and miR-200c according to the manufacturer's guidelines (Applied Biosystems, Carlsbad, Calif.). Quantitative RT-PCR was carried out using SYBR gene expression master mix or TaqMan miRNA expression assays (Applied Biosystems). Reactions were incubated for 10 min at 95° C. followed by 40 cycles for 15 seconds at 95° C. and 1 min at 60° C. The level of mRNAs and expression of cellular and secreted miRNA was determined using the Invitrogen StepOne System with 18S, RNU6B and cel-miR-1 used for normalization respectively. All reactions were run in triplicate and relative expression was analyzed with the comparative cycle threshold method (2^−ΔΔCT) according to the manufacturer (Applied Biosystems). Values were expressed as fold change compared to the control group.

CDK2 = assay: Quantitative RT-PCR, mRNA expression in LSMC; type: cell-based, human; details: Tranilast 200 μM vs DMSO, 12 h to 48 h, P<0.05
Procedure: as §1

COL1 = assay: Quantitative RT-PCR, mRNA expression in LSMC; type: cell-based, human; details: Tranilast 200 μM vs DMSO, 12 h to 48 h, P<0.05
Procedure: as §1

COL3A1 = assay: Quantitative RT-PCR, mRNA expression in LSMC; type: cell-based, human; details: Tranilast 200 μM vs DMSO, 12 h to 48 h, P<0.05
Procedure: as §1

DNMT1 = assay: Quantitative RT-PCR, mRNA expression in LSMC; type: cell-based, human; details: Tranilast 200 μM vs DMSO, 12 h to 48 h, P<0.05
Procedure: as §1

EZH2 = assay: Quantitative RT-PCR, mRNA expression in LSMC; type: cell-based, human; details: Tranilast 200 μM vs DMSO, 12 h to 48 h, P<0.05
Procedure: as §1

TGF-β3 = assay: Quantitative RT-PCR, mRNA expression in LSMC; type: cell-based, human; details: Tranilast 200 μM vs DMSO, 12 h to 48 h, P<0.05
Procedure: as §1

[1] = system: 3′UTR of CDK2 in lung cancer cell line A549; assay: 3′UTR luciferase reporter assay in A549; type: cell-based; details: Tranilast

SMILES: COc1ccc(C=CC(=O)Nc2ccccc2C(=O)O)cc1OC [Tranilast, 2-[[3-(3,4-dimethoxyphenyl)-1-oxo-2-propenyl]amino]benzoic acid]
- Caspase 3/7 activity (caspase 3/7): without a significant effect
- CCND1 expression, mRNA level (CCND1): significantly inhibited
- CDK2 expression, mRNA level (CDK2): significantly inhibited
- COL1 expression, mRNA level (COL1): significantly inhibited
- COL3A1 expression, mRNA level (COL3A1): significantly inhibited
- DNMT1 expression, mRNA level (DNMT1): significantly inhibited
- EZH2 expression, mRNA level (EZH2): significantly inhibited
- TGF-β3 expression, mRNA level (TGF-β3): significantly inhibited
- activity of luciferase reporter containing 3′UTR of CDK2 [1]: Inhibits
